Source: patent US9636343B2, “Composition for preventing and treating acetaminophen inducing hepatotoxicity containing TNP(N2-(m-Trifluorobenzyl), N6-(p-nitrobenzyl)purine) as an effective ingredient” (Korea Advanced Institute of Science and Technology, priority 2015, dated 2017)

How the values were obtained:
[1] = tested on: human hepatoma cell line HepG2; experiment: Acetaminophen caused apoptosis (cell survival rate) in human hepatoma cell line HepG2; type: cell-based; conditions: acetaminophen 25 mM together with TNP 100 μM, 18 hours, FIGS. 4 and 5
Procedure: The human hepatoma cell line HepG2 was distributed in a 6 well plate precoated with gelatin at the density of 1×10^6 cells/ml, followed by culture for 24 hours for cell adhesion. The culture medium herein was DMEM (Biowest) supplemented with 10% FBS, 10 nM dexamethasone, 10 nM insulin, and penicillin/streptomycin (100 μg/ml). The cells were cultured in a 37° C. incubator under the control of temperature and humidity with supplying a mixed gas containing CO2 by 5%.
The changes in acetaminophen caused apoptosis according to the treatment of TNP were investigated in the human hepatoma cell line HepG2 cultured by the same manner as described in Example 3.
Particularly, the human hepatoma cell line HepG2 was distributed in a 6 well plate at the concentration of 90% each well. The cell survival rate was calculated by the same manner as described in Experimental Example 1. All the statistic treatments in this invention were presented as mean±SD and the statistic analysis was performed by using Student's t-test. The maximum limits of significance were determined as p<0.05.

[2] = tested on: reduced glutathione (GSH) in mouse derived liver cells; experiment: Intracellular reduced glutathione (GSH) level, GSH-Glo Glutathione Assay, in mouse derived liver cells; type: cell-based; conditions: FIG. 6
Procedure: The metabolizing activity of liver cells on acetaminophen according to the treatment of TNP was investigated.
Particularly, the level of the reduced glutathione (GSH) in the mouse derived liver cells treated with acetaminophen and TNP by the same manner as described in Experimental Example 2 was measured. The measurement of the reduced glutathione was performed by using GSH-Glo Glutathione Assay kit (Promega) with Tristar2 LB 942 plate reader.

[3] = tested on: male C57BL/6J mouse; experiment: Liver toxicity in acetaminophen treated mouse model: histopathological analysis and blood analysis (AST and ALT); type: in vivo; conditions: acetaminophen 500 mg/kg orally, TNP 10 mg/kg intraperitoneal, 6 hours later
Procedure: (§1) To investigate the preventing effect of TNP on the acetaminophen caused liver toxicity in the animal model of Example 7, tissues, blood, and JNK phosphorylation were analyzed.
(§2) Particularly, acetaminophen and TNP were injected to the male mouse by the same manner as described in Example 7. 6 hours later, the liver was extracted from the mouse, followed by histopathological analysis, blood analysis (AST and ALT), and stress signaling activity (JNK) analysis. For the blood analysis, a blood sample was obtained from orbit of the mouse. The blood sample was centrifuged at 13,000 rpm for 10 minutes to obtain serum. AST and ALT analysis was performed (Idexx VetTest 8008 chemistry analyzer) with 100 μl of the serum obtained above. To investigate the stress signaling activity, the liver tissues extracted from the liver taken out above were loaded in RIPA medium (1 M tris-Cl (PH7.4), 1 M NaCl, 0.5 M EDTA, NP-40, 10% sodium deoxycholate, 10% SDS), followed by lysis with a homogenizer. After the centrifugation, the supernatant was collected, followed by SDS-PAGE and Western blotting. The phosphorylated JNK and the total JNK were quantified by Western blotting by the same manner as described in Example 5.

[4] = tested on: human embryonic stem cell-derived liver cells; experiment: Acetaminophen caused apoptosis (cell survival rate, trypan blue) in human embryonic stem cell-derived liver cells; type: cell-based; conditions: hESC-derived liver cells; acetaminophen 25 mM together with TNP 100 μM, 18 hours; FIG. 2
Procedure: Particularly, CHA-hESC cell line was cultured in the conditioned medium with feeder-free system for 3 days to be confluent. Upon completion of the culture, the hESC cells were cultured in RPMI-1640 (Hyclone, USA) supplemented with 50 ng/ml of Activin A (Peprotech, USA) for 5 days to induce the differentiation. The differentiated cells were cultured in the hepatocyte culture medium (HCM; Lonza, USA) supplemented with 30 ng/ml of fibroblast growth factor 4 (Peprotech) and 20 ng/ml of bone morphogenetic protein 2 (BMP2; Peprotech) for 5 days. Then, the cells were further cultured in the hepatocyte culture medium supplemented with 20 ng/ml of hepatocyte growth factor (HGF; Peprotech) for another 5 days to induce the differentiation of hESC into hepatocytes. The differentiated hepatocytes were cultured in the hepatocyte culture medium supplemented with 10 ng/ml of oncostatin M (R&D Systems, USA) and 0.1 μM of dexamethasone (Sigma) for 5 days to induce maturation of the hepatocytes. At last, the mature hepatocytes were obtained. […]
Particularly, the liver cells on the 19th day from the differentiation from human stem cells were distributed in a 6 well plate at the concentration of 90% each well. […] This experiment was performed in triplicate and the cell survival rate was analyzed based on the results. […] The maximum limits of significance were determined as p<0.05.

[5] = tested on: phosphorylated JNK; experiment: Stress signaling activity (JNK phosphorylation) in liver tissue of acetaminophen treated mouse model; type: in vivo; conditions: acetaminophen 500 mg/kg orally, TNP 10 mg/kg intraperitoneal, 6 hours later, FIG. 12
Procedure: as §1, §2

[6] = tested on: phosphorylated JNK; experiment: JNK phosphorylation (Western blotting) in mouse derived liver cells; type: cell-based; conditions: acetaminophen together with TNP, FIG. 7
Procedure: (§3) The regulation of response against stress caused by acetaminophen in liver cells according to the treatment of TNP was investigated.
Particularly, the mouse derived liver cells treated with acetaminophen and TNP by the same manner as described in Experimental Example 2 were obtained. Cell extract was prepared for protein assay. Then, SDS-PAGE and Western blotting were performed. The cells were lysed in 10 ml of SDS buffer (50 mM Tris-HCl, 1% IGEPAL CA-630, 0.25% deoxycholic acid, 150 mM NaCl, 1 mM ethylene-diamine tetra acetic acid, 1 mM NaF, and 0.1% sodium dodecyl sulfate, pH 7.4) containing protease inhibitor cocktail (Complete Mini, Roche, Germany). The cell lysate was placed in ice for 20 minutes, followed by centrifugation at 4° C., at 13000 rpm, for 10 minutes. Upon completion of the centrifugation, the protein in the supernatant was quantified (Bio-Rad Laboratories, USA). 50 μg of the protein was loaded for SDS-PAGE (SDS-polyacrylamide gel electrophoresis). The electrophoresed protein was transferred onto Immobilon-P transfer membrane (Millipore Corporate, USA) by using electroblotting. The membrane was then loaded in TBS (Tris-buffered saline) containing 0.1% Tween 20 and 10% milk powder, followed by blocking for 1 hour. […] The activity was analyzed by using Image J software (version 1.37, NIH, USA).

[7] = tested on: mouse derived liver cells; experiment: Acetaminophen caused apoptosis (cell survival rate) in mouse derived liver cells; type: cell-based; conditions: acetaminophen 25 mM together with TNP 100 μM, 18 hours, FIG. 3
Description: Particularly, the male C57BL/6J mouse at 10˜12 weeks was anesthetized by administrating Avertin via intraperitoneal injection, and the abdomen was opened. 24 gauge catheter was inserted in the portal vein to perfuse with a perfusion solution (1.42 M Nacl, 0.067 M Kcl, 0.1 M HEPES PH 7.4, 0.05 M EGTA). Then, a digestion solution comprising collagenase (Worthington, USA) was circulated. After the liver cells were digested, the mesenteric membrane was peeled off to separate liver cells, followed by filtering with nylon mesh. The filtrate was centrifuged at 100×g for 3 minutes. The supernatant was discarded and the precipitated liver cells were suspended in HBSS buffer (Hanks' Balanced salt solution, WelGene), followed by centrifugation. The precipitated liver cells were centrifuged at 2400 rpm for 10 minutes in Percol solution (autoclaved percoll (Sigma), 10×PBS, 1 M HEPES pH 7.4). The supernatant was discarded and the precipitated liver cells were suspended in HBSS buffer (Hanks' Balanced salt solution, WelGene), followed by centrifugation again at 100×g. […]
Particularly, the mouse derived liver cells were distributed in a 6 well plate at the concentration of 100% each well. The cell survival rate was calculated by the same manner as described in Experimental Example 1. […] The maximum limits of significance were determined as p<0.05.

[8] = tested on: male C57BL/6J mouse; experiment: Individual survival rate in acetaminophen treated mouse model; type: in vivo; conditions: acetaminophen 500 mg/kg orally, then TNP 10 mg/kg intraperitoneal, FIG. 9
Procedure: The inventors investigated whether or not TNP had the activity of protecting liver cells from the toxicity caused by acetaminophen in an animal model.
Particularly, the male C57BL/6J mouse at 8˜10 weeks was orally administered with 500 mg/kg of acetaminophen (Sigma) dissolved in water. Then, the mouse was administered with 10 mg/kg of TNP (Calbiocham) dissolved in olive oil (Sigma) via intraperitoneal injection, followed by investigation of individual survival rate. Statistical analysis was performed by Kaplan-Meier survival analysis, and the maximum limit of the significance was determined as p<0.05.

[9] = tested on: phosphorylated JNK; experiment: JNK phosphorylation (Western blotting) in human hepatoma cell line HepG2; type: cell-based; conditions: acetaminophen together with TNP, FIG. 8
Procedure: as §3
Particularly, the human hepatoma cell line HepG2 treated with acetaminophen and TNP by the same manner as described in Experimental Example 3 was obtained. Cell extract was prepared for protein assay. Then, SDS-PAGE and Western blotting were performed by the same manner as described in Experimental Example 5.

## O=[N+]([O-])c1ccc(CNc2nc(NCc3cccc(C(F)(F)F)c3)nc3[nH]cnc23)cc1 [TNP, N2-(m-Trifluorobenzyl), N6-(p-nitrobenzyl)purine]
[1]
  apoptosis of liver cells caused by acetaminophen: significantly suppressed
[2]; acetaminophen together with TNP
  decrease of the reduced glutathione caused by acetaminophen: back to increase
[2]; treatment of TNP alone
  reduced glutathione concentration in the liver cells: increased
[3]; mouse serum, FIG. 11
  level of ALT (liver toxicity serum index): significantly decreased
  level of AST (liver toxicity serum index): significantly decreased
[3]; mouse, FIG. 10
  necrosis in liver tissue (histopathological analysis): only minor necrosis
[4]
  apoptosis of liver cells caused by acetaminophen: significantly suppressed
[5]
  increase of phosphorylated JNK signal in liver tissue: significantly suppressed
[6]
  phosphorylated JNK signal increased by the acetaminophen caused stress response: significantly suppressed
[7]
  apoptosis of liver cells caused by acetaminophen: significantly suppressed
[8]
  individual survival rate: effect of protecting a mouse from the acetaminophen caused liver toxicity
[9]
  phosphorylated JNK signal increased by the acetaminophen caused stress response: significantly suppressed
